In patent publication US20240376163A1, “PEPTIDE FOR INHIBITING CALCINEURIN AND USE THEREOF” (Seoul National University R&DB Foundation, priority 2023, published 2024):

System: Jurkat T cells
Test: mRNA sequencing of activated Jurkat T cells
Format: cell-based, human

## C=CC[C@@H]1/C=C(\C)C[C@H](C)C[C@H](OC)[C@H]2O[C@@](O)(C(=O)C(=O)N3CCCC[C@H]3C(=O)O[C@H](/C(C)=C/[C@@H]3CC[C@@H](O)[C@H](OC)C3)[C@H](C)[C@@H](O)CC1=O)[C@H](C)C[C@@H]2OC [FK506, Tacrolimus, reference compound]
P + I
  CRIM1 FPKM: 0.305 FPKM
  CRTAM FPKM: 3.325 FPKM
  CSF1 FPKM: 1.706 FPKM
  CSF2 FPKM: 0 FPKM
  CST7 FPKM: 2.338 FPKM
  CXCL8 FPKM: 0.937 FPKM
  CXCR3 FPKM: 0.503 FPKM
  DSTYK FPKM: 3.501 FPKM
  FBXO34 FPKM: 14.612 FPKM
  FMNL2 FPKM: 2.726 FPKM
  FOSL2 FPKM: 2.204 FPKM
  FOXO1 FPKM: 1.77 FPKM
  FXYD5 FPKM: 41.346 FPKM
  FYN FPKM: 16.523 FPKM
  GFOD1 FPKM: 4.187 FPKM
  GRK5 FPKM: 8.481 FPKM
  GTDC1 FPKM: 4.629 FPKM
  IL2 FPKM: 0.287 FPKM
  IL3 FPKM: 0.062 FPKM
  IL21R FPKM: 2.244 FPKM
  IL21R-AS1 FPKM: 1.927 FPKM
  IQCJ-SCHIP1 FPKM: 1.657 FPKM
  IRF4 FPKM: 0.423 FPKM
  IRF8 FPKM: 1.19 FPKM
  ISM1 FPKM: 0.726 FPKM
  JAK2 FPKM: 5.248 FPKM
  KCNK1 FPKM: 10.967 FPKM
  KCNK5 FPKM: 3.906 FPKM
  LAMP3 FPKM: 6.412 FPKM
  LAX1 FPKM: 8.052 FPKM
  LIF FPKM: 0.143 FPKM
  LOC729603 FPKM: 2.179 FPKM
  LRRC8B FPKM: 3.555 FPKM
  LTBP4 FPKM: 8.427 FPKM
  MAP2K3 FPKM: 41.815 FPKM
  MIR6775 FPKM: 19.643 FPKM
  MIR6821 FPKM: 13.626 FPKM
  MYO1D FPKM: 4.59 FPKM
  NDFIP1 FPKM: 22.485 FPKM
  NFATC1 FPKM: 3.793 FPKM
  NPDC1 FPKM: 4.328 FPKM
  NR4A2 FPKM: 0.04 FPKM
  NTRK1 FPKM: 0.836 FPKM
  PAM FPKM: 1.483 FPKM
  PDGFA FPKM: 3.25 FPKM
  PELI1 FPKM: 8.175 FPKM
  PHACTR2 FPKM: 2.927 FPKM
  PHEX FPKM: 0.213 FPKM
  PIM3 FPKM: 42.827 FPKM
  PKIA FPKM: 13.962 FPKM
  PLK3 FPKM: 5.257 FPKM
  PLS3 FPKM: 0.052 FPKM
  POU2AF1 FPKM: 2.274 FPKM
  PPIF FPKM: 50.291 FPKM
  PTPN6 FPKM: 20.906 FPKM
  PTPN22 FPKM: 6.37 FPKM
  RDH10 FPKM: 5.856 FPKM
  REL FPKM: 4.749 FPKM
  RGS16 FPKM: 1.172 FPKM
  SCHIP1 FPKM: 1.535 FPKM
  SERPINB2 FPKM: 2.905 FPKM
  SHC4 FPKM: 0.663 FPKM
  SLAMF1 FPKM: 0.217 FPKM
  SLC35E4 FPKM: 0.952 FPKM
  SORBS1 FPKM: 0.4 FPKM
  SPRY1 FPKM: 4.074 FPKM
  STAT5A FPKM: 3.347 FPKM
  TAGAP FPKM: 4.352 FPKM
  TBC1D4 FPKM: 12.549 FPKM
  TBC1D20 FPKM: 17.7 FPKM
  TDRD9 FPKM: 1.245 FPKM
  TIAM2 FPKM: 0.27 FPKM
  TM4SF1 FPKM: 0.439 FPKM
  TNFRSF4 FPKM: 2.933 FPKM
  TNFSF9 FPKM: 2.568 FPKM
  TNFSF14 FPKM: 1.023 FPKM
  TNS3 FPKM: 0.678 FPKM
  VAMP1 FPKM: 14.793 FPKM
  XCL1 FPKM: 0 FPKM
  XCL2 FPKM: 0 FPKM
  ZNF704 FPKM: 0.014 FPKM
  ZNF827 FPKM: 1.521 FPKM
P+I
  ABCB10 FPKM: 10.164 FPKM
  ACTG1 FPKM: 1002.221 FPKM
  ADAM19 FPKM: 5.532 FPKM
  ADD3 FPKM: 13.6 FPKM
  ADORA2B FPKM: 8.219 FPKM
  AGO2 FPKM: 13.242 FPKM
  AIM1 FPKM: 37.047 FPKM
  APOBEC3A_B FPKM: 10.242 FPKM
  APOBEC3B FPKM: 41.16 FPKM
  APOBEC3C FPKM: 16.851 FPKM
  APOBEC3D FPKM: 10.187 FPKM
  APOL2 FPKM: 89.267 FPKM
  APOL6 FPKM: 46.937 FPKM
  AQP3 FPKM: 66.037 FPKM
  ARAP2 FPKM: 15.321 FPKM
  ARC FPKM: 9.966 FPKM
  ARHGAP23 FPKM: 2.576 FPKM
  ARHGEF6 FPKM: 35.366 FPKM
  ASAP1 FPKM: 7.765 FPKM
  ATG14 FPKM: 7.863 FPKM
  ATP2B4 FPKM: 16.449 FPKM
  ATXN1 FPKM: 1.798 FPKM
  BACH2 FPKM: 29.7 FPKM
  BAI2 FPKM: 1.395 FPKM
  BAIAP2-AS1 FPKM: 2.72 FPKM
  BATF3 FPKM: 36.514 FPKM
  BHLHE40 FPKM: 6.563 FPKM
  BTG1 FPKM: 22.099 FPKM
  C1QL1 FPKM: 1.444 FPKM
  C1orf233 FPKM: 0.79 FPKM
  C3 FPKM: 0.489 FPKM
  C9orf9 FPKM: 7.304 FPKM
  C10orf54 FPKM: 0.382 FPKM
  C16orf46 FPKM: 2.655 FPKM
  CASC15 FPKM: 4.027 FPKM
  CBX4 FPKM: 12.478 FPKM
  CBX6 FPKM: 42.006 FPKM
  CCDC64 FPKM: 10.044 FPKM
  CCDC71L FPKM: 13.763 FPKM
  CCL1 FPKM: 0 FPKM
  CCL3L1 FPKM: 0 FPKM
  CCL4 FPKM: 0 FPKM
  CCL4L1 FPKM: 0.087 FPKM
  CCL4L2 FPKM: 0.087 FPKM
  CCND2 FPKM: 0.558 FPKM
  CD1A FPKM: 4.589 FPKM
  CD1C FPKM: 3.288 FPKM
  CD1D FPKM: 2.553 FPKM
  CD27-AS1 FPKM: 5.11 FPKM
  CD27 FPKM: 3.098 FPKM
  CD55 FPKM: 6.015 FPKM
  CD69 FPKM: 125.597 FPKM
  CD83 FPKM: 35.907 FPKM
  CDCA7 FPKM: 26.911 FPKM
  CDT1 FPKM: 11.013 FPKM
  CFD FPKM: 0.937 FPKM
  CHI3L2 FPKM: 58.214 FPKM
  CHRNA9 FPKM: 4.046 FPKM
  CLEC2B FPKM: 60.911 FPKM
  CNR2 FPKM: 0.674 FPKM
  CORO2A FPKM: 1.862 FPKM
  CRIM1 FPKM: 0.305 FPKM
  CRTAM FPKM: 3.325 FPKM
  CSRNP1 FPKM: 26.052 FPKM
  CST7 FPKM: 2.338 FPKM
  CTDSPL FPKM: 1.758 FPKM
  CTTN FPKM: 11.037 FPKM
  CXCL3 FPKM: 3.147 FPKM
  CXCL9 FPKM: 0.839 FPKM
  CXCL10 FPKM: 0.352 FPKM
  CXCR3 FPKM: 0.503 FPKM
  CYB5RL FPKM: 1.807 FPKM
  DFNA5 FPKM: 12.016 FPKM
  DHFR FPKM: 7.656 FPKM
  DNAJB11 FPKM: 107.644 FPKM
  DNAJC1 FPKM: 13.765 FPKM
  DNPEP FPKM: 31.154 FPKM
  DOK2 FPKM: 27.372 FPKM
  DPY19L2P2 FPKM: 2.937 FPKM
  DPYSL2 FPKM: 11 FPKM
  DTX3L FPKM: 48.022 FPKM
  DUSP2 FPKM: 123.613 FPKM
  DUSP5 FPKM: 116.404 FPKM
  E2F1 FPKM: 7.783 FPKM
  E2F2 FPKM: 3.317 FPKM
  EIF2AK3 FPKM: 9.332 FPKM
  ENC1 FPKM: 9.299 FPKM
  ENHO FPKM: 1.746 FPKM
  ENPP1 FPKM: 124.248 FPKM
  EPAS1 FPKM: 5.846 FPKM
  EPHA3 FPKM: 2.019 FPKM
  ERO1LB FPKM: 5.101 FPKM
  ETV5 FPKM: 15.576 FPKM
  EVI2A FPKM: 15.078 FPKM
  FAM46C FPKM: 5.191 FPKM
  FAM111B FPKM: 5.291 FPKM
  FASLG FPKM: 1.518 FPKM
  FBXO34 FPKM: 14.612 FPKM
  FMNL2 FPKM: 2.726 FPKM
  FOS FPKM: 7.329 FPKM
  FOXO1 FPKM: 1.77 FPKM
  FST FPKM: 2.244 FPKM
  FURIN FPKM: 23.264 FPKM
  FYB FPKM: 11.107 FPKM
  GAMT FPKM: 10.915 FPKM
  GBP1 FPKM: 70.024 FPKM
  GBP2 FPKM: 27.591 FPKM
  GBP3 FPKM: 69.945 FPKM
  GBP4 FPKM: 4.384 FPKM
  GBP5 FPKM: 197.514 FPKM
  GDPD5 FPKM: 29.626 FPKM
  GEM FPKM: 2.495 FPKM
  GINS2 FPKM: 16.935 FPKM
  GLIPR2 FPKM: 15.84 FPKM
  GNAQ FPKM: 21.057 FPKM
  GNG2 FPKM: 25.67 FPKM
  GPR3 FPKM: 7.96 FPKM
